Experimental data published in publication PMC10895674, “First-in-Class Dual EZH2-HSP90 Inhibitor Eliciting Striking Antiglioblastoma Activity In Vitro and In Vivo” (Journal of Medicinal Chemistry, 2024).
Where two headings read alike, the source gives them in different places.

How the values were obtained:
[1] = tested on: Pt3R cells; test: Western blotting; type: cell-based, human
Procedure: Furthermore, the impact of compound 7 treatment on centromere proteins (CENPs) was assessed. As such, CENPs are the main constituent proteins of the kinetochore, which are essential for cell division. CENPs expression is elevated in GBM tissues and correlated with unfavorable overall survival in glioma patients.[53]
Thus, the ability of compound 7 to disturb redox homeostasis in TMZ-resistant cells and attain amplified therapeutic efficacy for GBM was evaluated. In both Pt3 and Pt3R cells, treatment with compound 7 for 48 h increased the ROS level (Figure 10A). […] Moreover, it was also observed that compound 7 increased mitochondria-derived ROS.
The detailed procedure was described in our previous study.[54],[55],[58],[59] Primary antibodies, anti-CENPA, anti-CENPE, anti-CENPF, and anti-CENPI antibodies, were purchased from abcam (Cambridge, U.K.); anti-CDK1 and anticyclin B1 antibodies were purchased from Santa Cruz Biotechnology, Inc. (Dallas, TX); and anti-EZH2 and anti-H3K27^me3 antibodies were purchased from GeneTex International Corporation (HsinChu, Taiwan), anti-Caspase-3 was purchased from GeneTex International Corporation; anti-cleaved Caspase-3 was purchased from Cell Signaling Technology (Danvers, Massachusetts).

[2] = tested on: TMZ-resistant Pt3R cells; test: RNA-seq gene expression profile (and cell morphology) after 48 h; type: cell-based, human
Procedure: To gain insights regarding the ability of dual inhibitor 7 to suppress the viability of TMZ-resistant GBM cells, RNA-seq to analyze gene expression profiles was performed.
Figure 7 Effect of compound 7 on gene expression profile in TMZ-resistant Pt3R cells. […] (B) GSEA functionally grouped genes. (C) Genes involved in apoptosis/necrosis and M phase/Kinetochore/Spindle were clustered in the heatmap.
RNA was isolated using the RNA extracting kit (Zymo Research, Irvine, CA) and subjected to RNA-seq serviced by BIOTOOLS Co., Ltd. (New Taipei City, Taiwan). Cell pellets were collected and subjected to proteomic analysis serviced by BIOTOOLS Co., Ltd. The comparison in gene expression between Pt3 and Pt3R was performed using RNA seq and described previously.[60]

[3] = tested on: Pt#3-R-induced tumor; test: In vivo anti-GBM efficacy, Pt3R xenograft; conditions: 20 mg/kg, intraperitoneally twice per week, NOD.CB17-Prkdc scid mice
Procedure: In vivo anti-GBM efficacy of compound 7 was also evaluated in this study. For the in vivo study, experimental NOD.CB17-Prkdc^scid/NCrCrl mice (8-week-old) were used and Pt3R cells (1 × 10^6) in 50 μL Dulbecco’s modified Eagle’s medium (DMEM) were injected into the back of mice. After 10 days, the tumor was detectable. […] In a nutshell, the outcome of the in vivo study ascertains that the remarkable in vitro anti-GBM activity profile of dual inhibitor 7 was translated to the in vivo potential.
Animal experiments were approved by the institutional animal care and use committee of Taipei Medical University (IACUC: LAC2022-0288). Male NOD.CB17-Prkdc^scid/NCrCrl mice (8-week-old) were purchased from BioLASCO Taiwan Co., Ltd. (Taipei, Taiwan). Pt3R cells (1 × 10^6) in 50 μL of DMEM were injected into the back of mice. Experimental mice were grouped as follows (Figure 11): DMSO (n = 5), C7–10 mg/kg (n = 4), C7–20 mg/kg (n = 6), TAZ-10 mg/kg (n = 6), TAZ-20 mg/kg (n = 8), STA-5+TAZ-5 mg/kg (n = 7), STA-10+TAZ-10 mg/kg (n = 7) and STA-15+TAZ-15 mg/kg (n = 7). After 10 days, the tumor was touchable. Mice were injected intraperitoneally with DMSO (the control group) or compounds twice per week.

[4] = Pharmacokinetics IV and PO; set-up: species or system Rat; conditions: in vivo
Procedure: Table S1: Pharmacokinetic data of compound 7
Rat IV (dose: 2 mg/kg) Rat PO (dose: 20 mg/kg)
T1/2 CL Vss AUC(0-inf) T1/2 Cmax Tmax AUC(0-inf) F
(hr) (ml/min/kg) (l/kg) (ng/mL*hr) (hr) (ng/ml) (hr) (ng/mL*hr) (%)
Sample Time (hr) Avg. S.D.

[5] = tested on: Pt3 cells; test: ROS assay (DHR, flow cytometry); type: cell-based, human; conditions: 48 h
Procedure: (§1) Figure 10 Compound 7 triggers ROS production from mitochondria. (A) After treatment for 48 h, cells were stained with the DHR reagent, and the fluorescent signal was estimated by flow cytometry. Treatment concentration of compound 7 was indicated. (B) Protein lysates were subjected to Western blotting using the indicated antibody. (C) After staining with MitoSOX (red) and Hoechst 33342 (blue), cellular signals were photographed and quantified D. Protein lysates were subjected to Western blotting using the indicated antibody.
(§2) Dihydrorhodamine 123 (DHR; Thermo Fisher Scientific, Waltham, MA) was used to label cellular ROS detected by the flow cytometry,[54] and the MitoSOX reagent (Thermo Fisher Scientific) was used to label mitochondrial ROS.[55]

[6] = tested on: Pt3R cells; test: ROS assay (DHR, flow cytometry); type: cell-based, human; conditions: 48 h
Procedure: as §1, §2

[7] = Rat IV 2 mg/kg, read-out: Drug Conc. Avg.
[8] = Rat PO 20 mg/kg, read-out: Drug Conc. Avg.

For `CCN(c1cc(-c2cccc(N(C)C(=O)c3cc(C(C)C)c(O)cc3O)c2)cc(C(=O)NCc2c(C)cc(C)[nH]c2=O)c1C)C1CCOCC1` [Compound 7, 3′-(2,4-Dihydroxy-5-isopropyl-N-methylbenzamido)-N-((4,6-dimethyl-2-oxo-1,2-dihydropyridin-3-yl)methyl)-5-(ethyl(tetrahydro-2H-pyran-4-yl)amino)-4-methyl-[1,1′-biphenyl]-3-carboxamide], the “EZH2 expression and EZH2-modulated H3K27 trimethylation” value ([1]; Figure 10B) was “inhibited”, the “proteins involved in cleaning ROS (catalase, SOD1, glutathione reductase, GPX1)” value ([1]; Figure 10B) was “decreased” and the “expression of cleaved caspase-3” value ([1]; Figure 10D) was “upregulate”. The CENPs protein expression ([1]; Pt3R (Figure 8D)) was “decreased”, the “expression of CDK1 and cyclin B1” value ([1]; Pt3R (Figure 8D)) was “downregulated” and the “centromere proteins (CENPs) CENPF, CENPE, CENPA, CENPI gene expression” value ([2]; Pt3R (Figure 8C)) was “decreased”. For the same compound, the “RBBP8 and BRCA1 gene expression” value ([2]; Pt3R (Figure 9A)) was “suppressed”, the “genes regulating homologous recombination (TOP2A, RAD54B, RAD21, EME1, BRIP1)” value ([2]; Pt3R (Figure 9H)) was “suppressed” and the “number of gene expressions decreased (RNA-seq)” value ([2]; Pt3R, 2 μM, 48 h) was 498. For the same compound, the “number of gene expressions increased (RNA-seq)” value ([2]; Pt3R, 2 μM, 48 h) was 297, the cell proliferation ([2]; Pt3R, 2 μM, 48 h (Figure 7A)) was “significantly inhibited cell proliferation” and the “M phase/kinetochore/spindle-related gene expression” value ([2]; Pt3R, 48 h) was “decreased”. For the same compound, the apoptosis/necrosis-related gene expression ([2]; Pt3R, 48 h) was “increased”, the “growth of Pt#3-R-induced tumor” value [3] was “significantly decreased the growth” and the concentration at 0.03 hr ([4]; Rat IV 2 mg/kg, 0.03 hr, read-out: Drug Conc. Avg.) was 2790 ng/mL. For the same compound, the concentration at 0.08 hr ([4]; Rat IV 2 mg/kg, 0.08 hr, read-out: Drug Conc. Avg.) was 929 ng/mL, the concentration at 0.25 hr [4, 7] was 406 ng/mL and the concentration at 0.5 hr [4, 7] was 218 ng/mL. It also gave a concentration at 1 hr [4, 7] of 76.6 ng/mL, a concentration at 2 hr [4, 7] of 30.5 ng/mL and a concentration at 4 hr [4, 7] of 5 ng/mL. The concentration at 6 hr [4, 7] was 1.1 ng/mL, the AUC(0-inf) ([4]; Rat IV, dose 2 mg/kg) was 470 ± 32 ng·h/mL and the clearance ([4]; Rat IV, dose 2 mg/kg) was 81.8 ± 5.8 mL/min/kg. The half-life ([4]; Rat IV, dose 2 mg/kg) was 0.8 h, the Vd ([4]; Rat IV, dose 2 mg/kg, read-out: Vss) was 3 ± 0.5 L/kg and the bioavailability ([4]; Rat PO 20 mg/kg vs IV 2 mg/kg) was 2.3%. The concentration at 0.25 hr [4, 8] was 23 ng/mL, the concentration at 0.5 hr [4, 8] was 11.1 ng/mL and the concentration at 1 hr [4, 8] was 23.8 ng/mL. It also gave a concentration at 2 hr [4, 8] of 15.3 ng/mL, a concentration at 4 hr [4, 8] of 18.1 ng/mL and a concentration at 6 hr [4, 8] of 4 ng/mL. The concentration at 8 hr ([4]; Rat PO 20 mg/kg, 8 hr, read-out: Drug Conc. Avg.) was 2.9 ng/mL, the AUC(0-inf) ([4]; Rat PO, dose 20 mg/kg) was 106 ± 62 ng·h/mL and the Cmax ([4]; Rat PO, dose 20 mg/kg) was 23.8 ± 8.9 ng/mL. The Tmax ([4]; Rat PO, dose 20 mg/kg) was 1 h, the half-life ([4]; Rat PO, dose 20 mg/kg) was 1.8 ± 0.5 h and the ROS level [5] was “increased”. For the same compound, the ROS level [6] was “increased”.
